According to US20190320654A1, “VOLATILE ORGANIC COMPOUNDS FOR INHIBITING FUNGAL GROWTH” (Georgia State University Research Foundation, Inc., priority 2014, published 2019):

What was measured:
P. destructans conidia = test: VOC exposure assay with P. destructans conidia in a contained airspace; as to anti-P. destructans activity, growth from conidia: key: +: growth from spores; −: no visible growth; assay type: cell-based, Pseudogymnoascus destructans; details: for anti-P. destructans activity against conidia / inhibition of conidia with activated carbon: 30 μl; for anti-P. destructans activity against conidia: closed system; for inhibitory activity on conidia: 11 days of exposure; for inhibition of conidia with activated carbon: control plates containing 1 g activated carbon
Excerpt: (§1) Volatile organic compounds previously shown to be produced by bacteria [Chuankun X, et al. Soil Biol Biochem. 2004 36:1997-2004; Fernando W G D, et al. Soil Biol Biochem. 2005 37:955-64] were screened for anti-P. destructans activity via VOC exposure to spores and mycelial plugs. The VOCs included: decanal; 2-ethyl-1-hexanol; nonanal; benzothiazole; benzaldehyde; and N,N-dimethyloctylamine (Sigma-Aldrich, Missouri). All VOCs were chosen based on their identification in fungistatic soils and their observed production in bacteria [Chuankun X, et al. Soil Biol Biochem. 2004 36:1997-2004; Fernando W G D, et al. Soil Biol Biochem. 2005 37:955-64]. All VOCs purchased as pure, liquid, research grade reagents and used directly, without modification, in all subsequent assays. A single-compartment Petri plate (150 mm×15 mm) was used for a contained airspace to assess P. destructans growth characteristics in the presence of fungistatic VOCs. Ten microliters of P. destructans conidia suspension (10^6 conidia ml^−1 in PBS) was spread onto SDA plates (35 mm×10 mm). Aliquots of 30, 3.0, or 0.3 μl of each VOC corresponding to maximum possible relative concentrations ranging from 113 ppm (v/v) to 1.13 ppm (v/v) were pipetted onto a sterile filter paper disk (12.7 mm) on a watch glass (75 mm). Each VOC containing disk and watch glass was placed inside a large Petri plate (150 mm 9 15 mm) along with a P. destructans-inoculated SDA plate (35 mm×10 mm) (FIG. 6). P. destructans mycelial plugs cut from the leading edge of actively growing colonies were inserted into fresh SDA plates (35 mm×10 mm) and placed in large Petri plates (150 mm×15 mm) with each formulation or pure VOC containing paper disk and sealed with parafilm M (Sigma-Aldrich, Missouri). […] Unexposed cultures and the addition of activated carbon to exposure assays served as negative controls for each trial. Anti-P. destructans activity was scored on a plus/minus scale for conidia-inoculated plates, and the radial growth from mycelial plugs was used to determine percent inhibition by comparing growth area of VOC exposed plugs to unexposed controls. All assays were performed in triplicate and averaged.

[1] = system: P. destructans mycelial plugs; test: VOC exposure assay with P. destructans mycelial plugs, radial growth area; assay type: cell-based, Pseudogymnoascus destructans; details: for inhibition of radial mycelial growth: 3 μl, up to 14 days
Excerpt: as §1
Filamentous fungi grow by hyphae elongation and not by distinct cellular division. Accordingly, measuring the difference between the area growth of control agent-exposed mycelial plugs and control plugs has been a vetted method for assessing antimicrobial susceptibility [Fernando W G D, et al. Soil Biol Biochem. 2005 37:955-64; Liu W, et al. Curr Res Bacteriol. 2008 1:128-34; Strobel G A, et al. Microbiology. 2007 153:2613-20]. The use of a ruler to measure the area of mycelial growth of filamentous fungi has its own challenges. Mycelial plugs will often grow asymmetrically, either naturally or because of exposure to the compound being tested. To provide more accurate measurement of mycelial growth, a digital photography and analysis technique was developed.
The GIMP (GNU Image Manipulation Program) is open-source, freely distributed software for image editing and authoring, compatible with GNU/Linux, Microsoft Windows, Mac OS X, Sun OpenSolaris, and FreeBSD operating systems. This software allows for the direct measurement of the number of pixels in a given selected area of a photograph. GIMP version 2.8.2 for Microsoft Windows was used at the time of this writing. A Nikon D3100 digital single lens reflex camera with an 18-55 mm lens was used to capture images. A standard three-leg tripod was used for support during capture.
The camera was attached to the tripod and aimed down to a surface to provide a consistent distance from the lens to the mycelial surface being photographed; ensuring the same pixel to millimeter ratio was retained for all acquired images. Images of mycelial plugs had their corresponding image numbers catalogued for later identification. […]

[2] = 3 μl VOC, 7 day exposure, incubated with activated carbon
[3] = 3 μl VOC, 10 day exposure, incubated with activated carbon
[4] = 30 μl VOC, incubated with activated carbon, 15° C.

SMILES | anti-P. destructans activity, growth from conidia (P. destructans conidia; 3 μl VOC, 7 day exposure) | anti-P. destructans activity, growth from conidia (P. destructans conidia; [2]) | anti-P. destructans activity, growth from conidia (P. destructans conidia; 3 μl VOC, 10 day exposure) | anti-P. destructans activity, growth from conidia (P. destructans conidia; [3]) | inhibition of growth from conidia (P. destructans conidia; 3 μl, 7 days) | anti-P. destructans activity, growth from conidia (P. destructans conidia; 30 μl VOC, 15° C.) | anti-P. destructans activity, growth from conidia (P. destructans conidia; [4]) | anti-P. destructans activity against conidia (P. destructans conidia; 15° C.) | effect on radial growth as compared to unexposed controls ([1]; 0.3 μl, 15° C.) | inhibition of radial mycelial growth ([1]; 15° C.) | colony morphology of cultures from conidia (P. destructans conidia; 3 μl, without activated carbon) | reduction in radial growth ([1]; 0.3 μl, 15° C., 14 days of exposure) [%] | inhibitory activity on conidia (P. destructans conidia; 3 μl) | inhibition of conidia with activated carbon (P. destructans conidia) | reduction in growth area ([1]; 0.3 μl, 4° C., 35 days post-inoculation) | reduction in growth as compared to unexposed controls ([1]; 30 μl, 15° C., 14 days of exposure) [%]
CCCCCCCCN(C)C [N,N-dimethyloctylamine] | + | + | + | + | unable to completely inhibit | − | − | demonstrated anti-P. destructans activity | induced growth | only minor reductions in radial growth |  |  |  |  |  | 
CSSSC [dimethyltrisulfide] |  |  |  |  |  |  |  | demonstrated anti-P. destructans activity |  |  |  |  |  |  |  | 
c1ccc2scnc2c1 [Benzothiazole, benzothiazole] | − | + | + | + |  | − | − | demonstrated anti-P. destructans activity |  |  | unique colony morphology characterized by increased pigmentation of the underside of the culture and diffusion of pigment into the growth media | 60 |  |  |  | 
CCCCC(CC)CO (stereo not drawn) [2-ethyl-1-hexanol] | − | + | − | + |  | − | + | demonstrated anti-P. destructans activity |  |  |  |  | demonstrated inhibitory activity | no inhibition |  | 
CCCCCCCCCC=O [Decanal, decanal] | − | + | − | + |  | − | + | demonstrated anti-P. destructans activity |  | only minor reductions in radial growth |  |  | demonstrated inhibitory activity | no inhibition | greater than 99% | 83
O=Cc1ccccc1 [Benzaldehyde, benzaldehyde] | − | + | + | + |  | − | + | demonstrated anti-P. destructans activity |  |  |  |  |  | no inhibition |  | 
CCCCCCCCC=O [Nonanal, nonanal] | − | + | − | + |  | − | − | demonstrated anti-P. destructans activity |  |  |  |  | demonstrated inhibitory activity |  |  | 
